Results: the supplement of paper PMC8149375

Tests used:
Conditions in all cases: treatment: drug alone; 5 days
769-P [1] = assay: GI50, drug alone; higher = less potent
Method: (§1)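 Primary HTS: 8 RCC cell lines treated with 8 doses (up to 10 uM) of each library drug alone for 5 days; viability read by CellTiter-Glo and normalised to DMSO. GI50 was fitted with XLfit (4-parameter), AUC is the area under the dose-response curve, and minimum viability is the lowest fraction of DMSO viability across doses.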

786-O [2] = assay: GI50, drug alone; higher = less potent
Method: as §1

A498 [3] = assay: GI50, drug alone; higher = less potent
Method: as §1

ACHN [4] = assay: GI50, drug alone; higher = less potent
Method: as §1

CAKI-1 [5] = assay: GI50, drug alone; higher = less potent
Method: as §1

SN12C [6] = assay: GI50, drug alone; higher = less potent
Method: as §1

TK-10 [7] = assay: GI50, drug alone; higher = less potent
Method: as §1

UO-31 [8] = assay: GI50, drug alone; higher = less potent
Method: as §1

769-P [9] = assay: minimum viability across doses, drug alone, relative to DMSO (fraction); higher = less growth inhibition
Method: as §1

786-O [10] = assay: as above
Method: as §1

A498 [11] = assay: as above
Method: as §1

ACHN [12] = assay: as above
Method: as §1

CAKI-1 [13] = assay: as above
Method: as §1

SN12C [14] = assay: as above
Method: as §1

TK-10 [15] = assay: as above
Method: as §1

UO-31 [16] = assay: as above
Method: as §1

769-P [17] = assay: AUC of dose-response viability curve, drug alone (arbitrary (AUC of normalised viability)); higher = less growth inhibition
Method: as §1

786-O [18] = assay: as above
Method: as §1

A498 [19] = assay: as above
Method: as §1

ACHN [20] = assay: as above
Method: as §1

CAKI-1 [21] = assay: as above
Method: as §1

SN12C [22] = assay: as above
Method: as §1

TK-10 [23] = assay: as above
Method: as §1

UO-31 [24] = assay: as above
Method: as §1

| SMILES | GI50, drug alone (769-P [1]) [µM] | GI50, drug alone (786-O [2]) [µM] | GI50, drug alone (A498 [3]) [µM] | GI50, drug alone (ACHN [4]) [µM] | GI50, drug alone (CAKI-1 [5]) [µM] | GI50, drug alone (SN12C [6]) [µM] | GI50, drug alone (TK-10 [7]) [µM] | GI50, drug alone (UO-31 [8]) [µM] | minimum viability across doses (769-P [9]) | minimum viability across doses (786-O [10]) | minimum viability across doses (A498 [11]) | minimum viability across doses (ACHN [12]) | minimum viability across doses (CAKI-1 [13]) | minimum viability across doses (SN12C [14]) | minimum viability across doses (TK-10 [15]) | minimum viability across doses (UO-31 [16]) | AUC of dose-response viability curve (769-P [17]) | AUC of dose-response viability curve (786-O [18]) | AUC of dose-response viability curve (A498 [19]) | AUC of dose-response viability curve (ACHN [20]) | AUC of dose-response viability curve (CAKI-1 [21]) | AUC of dose-response viability curve (SN12C [22]) | AUC of dose-response viability curve (TK-10 [23]) | AUC of dose-response viability curve (UO-31 [24]) |
| --- | --- | --- | --- | --- | --- | --- | --- | --- | --- | --- | --- | --- | --- | --- | --- | --- | --- | --- | --- | --- | --- | --- | --- | --- |
| CNC(=O)c1ccc(-c2cnc3ncc(Cc4ccc5ncccc5c4)n3n2)cc1F | > 10 | > 10 | > 10 | > 10 | > 10 | > 10 | > 10 | > 10 | 0.916 | 0.652 | 0.984 | 0.842 | 0.802 | 0.913 | 0.843 | 1.21 | 3.5 | 2.88 | 4.54 | 3.21 | 3.25 | 3.41 | 3.14 | 5.21 |
| COc1cc(OC)c(/C=C/S(=O)(=O)Cc2ccc(OC)c(NCC(=O)[O][Na])c2)c(OC)c1 | 0.0821 | 0.0233 | 0.0912 | 0.123 | 0.0743 | 0.216 | 0.327 | 0.0855 | 0.0669 | 0.00295 | 0.154 | 0.102 | 0.119 | 0.124 | 0.273 | 0.0069 | 1.49 | 0.88 | 1.91 | 1.7 | 1.63 | 2.01 | 2.13 | 1.46 |
| c1ccc2c(-c3cnn4cc(-c5ccc(N6CCNCC6)cc5)cnc34)ccnc2c1 | 2.6 | 8.26 | 8.21 | 2.01 | 1.63 | 2.8 | 7.73 | 7.44 | 0.00246 | 0.0032 | 0.00414 | 0.00139 | 0.00218 | 0.00261 | 0.00522 | 0.00507 | 2.86 | 3.55 | 3.76 | 2.68 | 2.96 | 2.88 | 2.64 | 6.11 |
| Nc1nc(Nc2ccc(S(N)(=O)=O)cc2)nn1C(=O)c1c(F)cccc1F | > 10 | 0.465 | > 10 | 2.4 | 4.58 | 4.89 | > 10 | 2.8 | 0.0485 | 0.00276 | 0.559 | 0.0118 | 0.0615 | 0.203 | 0.573 | 0.00913 | 3.08 | 1.8 | 3.39 | 2.85 | 3.13 | 2.99 | 2.77 | 3.19 |
| NCC(=O)Nc1ccc(-n2nc(C(F)(F)F)cc2-c2ccc3c(ccc4ccccc43)c2)cc1 | 3.77 | 1.62 | 3.22 | 4.51 | 4.52 | 4.07 | 4.25 | 0.928 | 0.0386 | 0.00641 | 0.0189 | 0.0447 | 0.0096 | 0.00771 | 0.326 | 0.00932 | 2.96 | 2.29 | 3.01 | 3.11 | 3.25 | 3.13 | 2.74 | 2.76 |
| Cc1cnc(NC(=O)Nc2cc(Br)c(C)cc2OC[C@@H]2CNCCO2)cn1 | > 10 | 0.342 | 3.57 | 0.161 | 1.39 | 4.66 | 0.58 | 0.745 | 0.0604 | 0.00129 | 0.0991 | 0.0243 | 0.145 | 0.175 | 0.156 | 0.00586 | 2.27 | 2 | 3.76 | 1.82 | 2.83 | 3.07 | 2.25 | 3.67 |
| C[C@@H]1CN(CC(=O)Nc2ccc3c(c2)Cc2cccc(-c4cc(=O)cc(N5CCOCC5)o4)c2S3)C[C@H](C)O1 | > 10 | 6.61 | > 10 | > 10 | 4 | > 10 | > 10 | > 10 | 0.855 | 0.35 | 0.893 | 0.548 | 0.224 | 0.646 | 0.701 | 1.35 | 3.53 | 3.37 | 4.69 | 3.15 | 2.8 | 3.35 | 3.25 | 6.19 |
| O=c1cc(N2CCOCC2)oc2c(-c3cccc4c3sc3ccccc34)cccc12 | 9.84 | 3.26 | > 10 | 6.82 | 2.78 | > 10 | 9.09 | > 10 | 0.489 | 0.0967 | 0.62 | 0.35 | 0.184 | 0.561 | 0.447 | 0.476 | 3.36 | 2.69 | 3.5 | 3.44 | 2.74 | 3.26 | 3.15 | 3.93 |
